A compilation of properties of binary mixtures (doi:10.1021/acs.jced.0c00447)

Test: xn = mol fraction of the nth substance listed
Conditions: 100 kPa

OCC(F)(F)F + CC[n+]1ccn(C)c1.N#C[N-]C#N
x2 = 0
Conditions | speed of sound [m/s] | viscosity [mPa·s]
303.15 K | 819.3 | 1.56
313.15 K | 792.3 | 1.23
318.15 K | 778.8 | 1.1
323.15 K | 765.1 | 0.99

CC[n+]1ccn(C)c1.N#C[N-]C#N + OCC(F)(F)F
Conditions | speed of sound [m/s] | viscosity [mPa·s]
298.15 K, x1 = 0.1031 | 1021.8 | 2.48
298.15 K, x1 = 0.1957 | 1150.9 | 3.2
298.15 K, x1 = 0.4905 | 1463.6 | 6.07
298.15 K, x1 = 0.5915 | 1544.5 | 7.25
298.15 K, x1 = 0.6943 | 1614.6 | 8.56
298.15 K, x1 = 0.7956 | 1673.5 | 9.95
298.15 K, x1 = 0.8915 | 1730.2 | 11.36
298.15 K, x1 = 1 | 1786.7 | 13.09
303.15 K, x1 = 0.1957 | 1137.7 | 2.81
303.15 K, x1 = 0.2936 | 1258.6 | 3.55
303.15 K, x1 = 0.3935 | 1366.8 | 4.39
303.15 K, x1 = 0.4905 | 1450.9 | 5.29
303.15 K, x1 = 0.6943 | 1602.2 | 7.46
303.15 K, x1 = 0.7956 | 1661.2 | 8.67
303.15 K, x1 = 0.8915 | 1717.9 | 9.91
303.15 K, x1 = 1 | 1774.6 | 11.39
308.15 K, x1 = 0.1031 | 995.3 | 1.96
308.15 K, x1 = 0.1957 | 1124.7 | 2.52
308.15 K, x1 = 0.2936 | 1245.8 | 3.17
308.15 K, x1 = 0.3935 | 1354.2 | 3.92
308.15 K, x1 = 0.4905 | 1438.3 | 4.71
308.15 K, x1 = 0.5915 | 1519.5 | 5.61
308.15 K, x1 = 0.6943 | 1590 | 6.6
308.15 K, x1 = 0.7956 | 1649.1 | 7.66
308.15 K, x1 = 1 | 1762.5 | 10
313.15 K, x1 = 0.1031 | 982.2 | 1.76
313.15 K, x1 = 0.1957 | 1111.8 | 2.27
313.15 K, x1 = 0.2936 | 1233.1 | 2.87
313.15 K, x1 = 0.3935 | 1341.7 | 3.54
313.15 K, x1 = 0.4905 | 1425.9 | 4.25
313.15 K, x1 = 0.5915 | 1507.3 | 5.04
313.15 K, x1 = 0.6943 | 1577.9 | 5.91
313.15 K, x1 = 0.7956 | 1637 | 6.83
313.15 K, x1 = 0.8915 | 1693.9 | 7.76
318.15 K, x1 = 0.1031 | 969.4 | 1.6
318.15 K, x1 = 0.3935 | 1329.4 | 3.23
318.15 K, x1 = 0.4905 | 1413.7 | 3.86
318.15 K, x1 = 0.5915 | 1495.2 | 4.57
318.15 K, x1 = 0.6943 | 1565.9 | 5.34
318.15 K, x1 = 0.7956 | 1625 | 6.15
318.15 K, x1 = 0.8915 | 1682 | 6.96
318.15 K, x1 = 1 | 1738.8 | 7.92
323.15 K, x1 = 0.1031 | 956.4 | 1.48
323.15 K, x1 = 0.1957 | 1086.4 | 1.93
323.15 K, x1 = 0.2936 | 1208.1 | 2.44
323.15 K, x1 = 0.3935 | 1317.1 | 2.99
323.15 K, x1 = 0.4905 | 1401.5 | 3.57
323.15 K, x1 = 0.5915 | 1483.2 | 4.2
323.15 K, x1 = 0.6943 | 1553.9 | 4.89
323.15 K, x1 = 0.7956 | 1613.1 | 5.6
323.15 K, x1 = 0.8915 | 1670.2 | 6.31
323.15 K, x1 = 1 | 1727.1 | 7.13
